According to ChEMBL document CHEMBL1153668, “3-Pyridines as replacements for an isoxazole ring: The antirhinoviral activity of pyridine analogues related to disoxaril” (Bioorg Med Chem Lett, 1995):
Values after ≈ are worked out from the molar mass of the structure shown. Active and inactive are the calls of the source. The rule behind the calls is not given here.

Legend:
[1] = tested on: Human rhinovirus sp.; experiment: Antirhinoviral activity against Human Rhinovirus R2; type: functional
[2] = tested on: Human rhinovirus sp.; experiment: Antirhinoviral activity against Human Rhinovirus R21; type: functional
[3] = tested on: Human rhinovirus sp.; experiment: Antirhinoviral activity against Human Rhinovirus R22; type: functional
[4] = tested on: Human rhinovirus sp.; experiment: Antirhinoviral activity against Human Rhinovirus R25; type: functional
[5] = tested on: Human rhinovirus sp.; experiment: Antirhinoviral activity against Human Rhinovirus R30; type: functional
[6] = tested on: Human rhinovirus sp.; experiment: Antirhinoviral activity against Human Rhinovirus R41; Not active; type: functional, organism-based
[7] = tested on: Human rhinovirus sp.; experiment: Antirhinoviral activity against Human Rhinovirus R50; type: functional
[8] = tested on: Human rhinovirus sp.; experiment: Antirhinoviral activity against Human Rhinovirus R67; type: functional
[9] = tested on: Human rhinovirus sp.; experiment: Antirhinoviral activity against Human Rhinovirus R6; Not active; type: functional, organism-based
[10] = tested on: Human rhinovirus sp.; experiment: Antirhinoviral activity against Human Rhinovirus R89; type: functional
[11] = tested on: Human rhinovirus sp.; experiment: Antirhinoviral activity against Human Rhinovirus R14; type: functional
[12] = tested on: Human rhinovirus sp.; experiment: Antirhinoviral activity against Human Rhinovirus R15; type: functional
[13] = tested on: Human rhinovirus sp.; experiment: Antirhinoviral activity against Human Rhinovirus R1A; type: functional
[14] = tested on: Human rhinovirus sp.; experiment: Antirhinoviral activity against Human Rhinovirus R1B; type: functional
[15] = tested on: Human rhinovirus sp.; experiment: Antirhinoviral activity against Human Rhinovirus R86; Not active; type: functional, organism-based
[16] = Partition coefficient (logP); type: physicochemical; settings: octanol/water
[17] = tested on: Human rhinovirus sp.; experiment: Antirhinoviral activity against Human Rhinovirus serotypes R1A, R1B, R2, R6, R14, R15, R21, R22, R25, R30, R41, R50, R67, R86 and R89; Inactive against HRV-86; type: functional, organism-based
[18] = tested on: Human rhinovirus sp.; experiment: Antirhinoviral activity against Human Rhinovirus R41; type: functional
[19] = tested on: Human rhinovirus sp.; experiment: Antirhinoviral activity against Human Rhinovirus R6; type: functional
[20] = tested on: Human rhinovirus sp.; experiment: Antirhinoviral activity against Human Rhinovirus R86; type: functional
[21] = tested on: Human rhinovirus sp.; experiment: Antirhinoviral activity against Human Rhinovirus serotypes R1A, R1B, R2, R6, R14, R15, R21, R22, R25, R30, R41, R50, R67, R86 and R89.; type: functional
[22] = tested on: Human rhinovirus sp.; experiment: Antirhinoviral activity against Human Rhinovirus R14; Not active; type: functional, organism-based
[23] = tested on: Human rhinovirus sp.; experiment: Antirhinoviral activity against Human Rhinovirus serotypes R1A, R1B, R2, R6, R14, R15, R21, R22, R25, R30, R41, R50, R67, R86 and R89; type: functional
[24] = tested on: Human rhinovirus sp.; experiment: Antirhinoviral activity against Human Rhinovirus serotypes R1A, R1B, R2, R6, R14, R15, R21, R22, R25, R30, R41, R50, R67, R86 and R89; Inactive against HRV-6, 14, 86; type: functional, organism-based

Structure (SMILES) | MIC [1] [µM] | MIC [2] [µM] | MIC [3] [µM] | MIC [4] [µM] | MIC [5] [µM] | MIC [7] [µM] | MIC [8] [µM] | MIC [10] [µM] | MIC [11] [µM] | MIC [12] [µM] | MIC [13] [µM] | MIC [14] [µM] | logP [16] | MIC [20] [µM] | Mean activity [21] [µM] | also measured
Cc1cc(-c2nnn(C)n2)cc(C)c1OCCCCCc1ccccn1 | 0.34 (≈ 0.119 µg/mL) | 0.05 (≈ 0.0176 µg/mL) | 0.21 (≈ 0.0738 µg/mL) | 0.08 (≈ 0.0281 µg/mL) | 0.25 (≈ 0.0879 µg/mL) | 0.36 (≈ 0.127 µg/mL) | 1.19 (≈ 0.418 µg/mL) | 0.06 (≈ 0.0211 µg/mL) | 3.84 (≈ 1.35 µg/mL) | 1.91 (≈ 0.671 µg/mL) | 0.66 (≈ 0.232 µg/mL) | 0.11 (≈ 0.0387 µg/mL) | – | – | – | MIC [6]: inactive; MIC [9]: inactive; MIC [15]: inactive
Cc1noc(-c2cc(C)c(OCCCc3cccnc3)c(C)c2)n1 | – | – | – | – | – | – | – | – | – | – | – | – | 3.3 | – | – | Mean activity [17]: inactive
Cc1cc(-c2nnn(C)n2)cc(C)c1OCCCCCc1cccnc1 | 0.2 (≈ 0.0703 µg/mL) | 0.03 (≈ 0.0105 µg/mL) | 0.17 (≈ 0.0597 µg/mL) | 0.04 (≈ 0.0141 µg/mL) | 0.17 (≈ 0.0597 µg/mL) | 2.28 (≈ 0.801 µg/mL) | 0.37 (≈ 0.13 µg/mL) | 0.03 (≈ 0.0105 µg/mL) | 1.05 (≈ 0.369 µg/mL) | 1.25 (≈ 0.439 µg/mL) | 0.28 (≈ 0.0984 µg/mL) | 0.1 (≈ 0.0351 µg/mL) | – | 1.08 (≈ 0.38 µg/mL) | – | MIC [18]: 2.16 µM (≈ 0.759 µg/mL); MIC [19]: 0.82 µM (≈ 0.288 µg/mL)
Cc1cc(CCCCCOc2c(C)cc(-c3nnn(C)n3)cc2C)on1 | 0.04 (≈ 0.0142 µg/mL) | 0.04 (≈ 0.0142 µg/mL) | 0.08 (≈ 0.0284 µg/mL) | 0.31 (≈ 0.11 µg/mL) | 0.11 (≈ 0.0391 µg/mL) | 0.23 (≈ 0.0818 µg/mL) | 0.35 (≈ 0.124 µg/mL) | 0.04 (≈ 0.0142 µg/mL) | 0.62 (≈ 0.22 µg/mL) | 0.77 (≈ 0.274 µg/mL) | 0.42 (≈ 0.149 µg/mL) | 0.1 (≈ 0.0355 µg/mL) | – | 0.84 (≈ 0.299 µg/mL) | – | MIC [18]: 1.43 µM (≈ 0.508 µg/mL); MIC [19]: 0.98 µM (≈ 0.348 µg/mL)
Cc1ccc(CCCOc2c(C)cc(-c3nc(C)no3)cc2C)cn1 | – | – | – | – | – | – | – | – | – | – | – | – | 3.8 | – | 0.25 | –
Cc1cc(-c2nnn(C)n2)cc(C)c1OCCCCCc1ccncc1 | 0.26 (≈ 0.0914 µg/mL) | 0.08 (≈ 0.0281 µg/mL) | 0.2 (≈ 0.0703 µg/mL) | 0.11 (≈ 0.0387 µg/mL) | 0.36 (≈ 0.127 µg/mL) | 0.36 (≈ 0.127 µg/mL) | 0.51 (≈ 0.179 µg/mL) | 0.07 (≈ 0.0246 µg/mL) | – | 2.13 (≈ 0.749 µg/mL) | 0.68 (≈ 0.239 µg/mL) | 0.27 (≈ 0.0949 µg/mL) | – | 0.43 (≈ 0.151 µg/mL) | – | MIC [6]: inactive; MIC [9]: inactive; MIC [22]: inactive
Cc1cc(CCCOc2c(C)cc(-c3nc(C)no3)cc2C)on1 | – | – | – | – | – | – | – | – | – | – | – | – | 3.2 | – | – | Mean activity [23]: 0.22 µM
Cc1cc(-c2nnn(C)n2)cc(C)c1OCCCc1cccnc1 | – | – | – | – | – | – | – | – | – | – | – | – | – | – | – | Mean activity [24]: inactive
Cc1ccc(CCCOc2c(C)cc(-c3nnn(C)n3)cc2C)cn1 | – | – | – | – | – | – | – | – | – | – | – | – | – | – | 0.54 | –
Cc1cc(CCCOc2c(C)cc(-c3nnn(C)n3)cc2C)on1 | – | – | – | – | – | – | – | – | – | – | – | – | – | – | 0.73 | –
